Measured values: patent US8716293B2, “Macrocyclic integrase inhibitors” (Janssen R&D Ireland, priority 2010, dated 2014)

Key:
[1] = tested on: HIV-1 SDM strain Q148R; assay: cell-based HIV-1 replication assay in MT4-LTR-EGFP cells, Q148R mutant; conditions: fold change in activity against Q148R mutant compared to wild type HIV
From the text: (§1) MT4-LTR-enhanced green fluorescent protein (EGFP) cells were obtained by transfecting MT4 cells with a selectable construct encompassing the coding sequences for the HIV LTR as a promoter for the expression of EGFP and subsequent selection of permanently transfected cells. MT4-cytomegalovirus (CMV)-EGFP cells were obtained by selection for permanently transformed MT4 cells with a CMV-EGFP reporter gene. Cell lines were maintained in RPMI 1640 medium supplemented with 10% heat-inactivated fetal calf serum, 2 mM L-glutamine, 0.1% NaHCO3, and antibiotics (0.02% gentamicin and 0.8% G418) and incubated in a humidified incubator with a 5% CO2 atmosphere at 37° C.
(§2) N155H and Q148R mutant Integrase coding sequences were constructed in the pUC19-5′HXB2D vector (XbaI-SalI fragment of pHXB2D), containing the HIV-1 clone HXB2D IN coding sequence, by using a QuikChange site-directed mutagenesis kit (Stratagene, La Jolla, Calif.) and HPLC-purified primers (Genset Oligos, La Jolla, Calif.). Altered plasmid sequences were confirmed by dideoxyribose sequencing. For generation of site-directed mutant (SDM) virus stocks, MT4 cells were subcultured at a density of 250,000 cells/ml on the day before transfection. Cells were pelleted and resuspended in phosphate-buffered saline at a concentration of 3.1×10^6 cells/ml. A 0.8-ml portion ([…]) was used for each transfection. Transfections were performed with a Bio-Rad Gene Pulser (Bio-Rad, Hercules, Calif.) with 0.4-cm electrode cuvettes (Bio-Rad). Cells were electroporated with 10 μg of SalI-linearized pUC19-3′HXB2D (SalI-XbaI fragment of pHXB2D) and 5 μg of SalI-digested SDM at 250 μF and 300 V, followed by a 30-min incubation at room temperature. Ten ml of fresh culture medium was then added to the suspension of transfected cells, and incubation was performed at 37° C. in a humidified atmosphere with 5% CO2. Cell cultures were monitored for the appearance of cytopathic effect (CPE).
(§3) The inhibitory antiviral activity of different compounds was determined in a cell-based HIV-1 replication assay. MT4-LTR-EGFP cells (150,000 cells/ml) were infected with HIV-1 (IIIB or SDM strains Q148R, N155H, or G140S-Q148H; multiplicity of infection [MOI] of 0.0025) in the presence or absence of inhibitor. After 3 days of incubation, the inhibition of HIV replication was quantified by measuring EGFP fluorescence, and expressed as the compound concentration required for 50% inhibition of HIV-1 replication in cell culture (EC50).

[2] = tested on: HIV-1 SDM strain N155H; assay: cell-based HIV-1 replication assay in MT4-LTR-EGFP cells, N155H mutant; conditions: fold change in activity against N155H mutant compared to wild type HIV
From the text: as §1, §2, §3

[3] = tested on: HIV-1 SDM strain G140S-Q148H; assay: cell-based HIV-1 replication assay in MT4-LTR-EGFP cells, G140S-Q148H mutant; conditions: fold change in activity against G140S-Q148H mutant compared to wild type HIV
From the text: as §1, §2, §3

[4] = tested on: HIV-1 LAI (IIIB); assay: antiviral assay in the presence of 50% human serum; format: cell-based; conditions: MT-4-LTR-EGFP cells, 4 days, resazurin cell viability
Method: For the antiviral assay in the presence of 50% human serum, MT-4-LTR-EGFP cells were infected with HIV-1 LAI (IIIB) at a MOI of 0.001 to 0.01 CCID50/cell in RPMI1640 medium. Following 1 h of incubation, cells were washed and plated into a 96-well plate containing serial dilutions of test compound in the presence of 10% fetal calf serum or 50% human serum. After 4 days of incubation, the EC50 in the presence of 50% human serum (EC50/HS) was determined by a cell viability assay using resazurin (as described by Fields, R. D., and M. V. Lancaster (1993) Am. Biotechnol. Lab. 11:48-50).

[5] = pharmacokinetic evaluation in the rat; format: in vivo, male Sprague-Dawley rats; conditions: intravenous bolus 2 mg/kg; for CLp: plasma clearance; for t1/2: terminal phase elimination half-life; for Vss: volume of distribution at steady-state
Method: For determining the pharmacokinetic properties in rat, each HIV integrase inhibitor was dissolved in PEG400/normal saline (70:30 (v/v)) at a nominal concentration of 1 mg/ml and administered (2 ml/kg) to male Sprague-Dawley rats (n=3 per test compound) as an intravenous bolus via a saphenous vein at a dose level of 2 mg/kg. […] Plasma was obtained by centrifugation and stored at −20° C. prior to analysis. Analysis was performed using liquid chromatography (LC) with tandem mass spectrometric detection (MS/MS) in positive ion mode. Each HIV integrase inhibitor was eluted from a reversed-phase column with a gradient of acetonitrile and water containing 0.1% (v/v) formic acid. At the time of analysis plasma samples (50 p. 1) were thawed and […] with 200 μl of acetonitrile containing 0.1% (v/v) formic acid and centrifuged. Aliquots of the supernatant (100 μl) were diluted with 200 μl of water containing 25% (v/v) methanol and 0.1% (v/v) formic acid and injected via an electrospray interface directly into the Mass Spectrometer. Calibration standards and quality controls were prepared in rat plasma at the same time as the samples and analyzed before and after the samples containing HIV integrase inhibitor. Non-compartmental pharmacokinetic analysis of the plasma concentration-time curves was performed using WinNonLin software to provide estimates of the plasma clearance (CLp), volume of distribution at steady-state (Vss) and terminal phase elimination half-life (t1/2).

[6] = tested on: cryopreserved hepatocytes from Sprague Dawley rats; assay: metabolic stability in rat hepatocytes; format: in vitro ADME; conditions: 1 μM, percentage turnover; for Rat (% TO) 15 min: 15 min incubation; for Rat (% TO) 60 min: 60 min incubation
Method: (§4) For determining in vitro metabolic stability, cryopreserved hepatocytes from Sprague Dawley rats and of human subjects (pool of male and female) were obtained from an external supplier (Cellz Direct Inc., Paisly, UK). Tested compounds were dissolved in DMSO and this stock solution was used to spike rat and human hepatocyte cell cultures (10^6 cells/ml) at a final concentration of 1 μM (final percentage of DMSO was 0.02% (v/v)). Incubations were performed for up to 60 min at approximately 37° C. and terminated by the addition of two volumes of DMSO. Samples were then centrifuged and aliquots of the supernatant analyzed using liquid chromatography (LC) with electrospray mass spectrometric detection (MS/MS) to monitor the disappearance of parent compound by single reaction monitoring (SRM) and reverse-phase chromotatography with a gradient of acetonitrile and water containing 0.1% (v/v) formic acid. Based on peak area, the percentage of parent compound remaining after 15 and 60 min incubation was calculated and the results, expressed as percentage turnover (TO) relative to time zero controls.

[7] = tested on: cryopreserved hepatocytes of human subjects; assay: metabolic stability in human hepatocytes; format: in vitro ADME; conditions: 1 μM, percentage turnover; for Human (% TO) 15 min: 15 min incubation; for Human (% TO) 60 min: 60 min incubation
Method: as §4

Row | Structure (SMILES) | FC-Q148R [1] | FC-N155H [2] | FC-G140S-Q148H [3] | EC50 [4] [nM] | CLp [5] [mL/min/kg] | t1/2 [5] [h] | Vss [5] [L/kg] | Rat (% TO) 15 min [6] [% TO] | Rat (% TO) 60 min [6] [% TO] | Human (% TO) 15 min [7] [% TO] | Human (% TO) 60 min [7] [% TO]
1 | CCN1C[C@H](C)n2c(c(O)c3c(=O)n4nc(c32)N(C)S(=O)(=O)CCCCCOc2cc(F)ccc2C4)C1=O [Compound 5] | 0.5 | 2.4 | 1.2 | 16 | 8 | 4.9 | 1.5 | 15 | 20 | 12 | 38
2 | CC(C)N1C[C@H](C)n2c(c(O)c3c(=O)n4nc(c32)N(C)S(=O)(=O)CCCCOc2cc(F)ccc2C4)C1=O [Compound 6] | 0.7 | 3.2 | 1.7 | 5 | 5 | 5.5 | 0.7 | 20 | 33 | 23 | 36
3 | CC(C)N1C[C@H](C)n2c(c(O)c3c(=O)n4nc(c32)N(C)S(=O)(=O)CCCCCOc2cc(F)ccc2C4)C1=O [Compound 7] | 0.4 | 2.2 | 1.0 | 12 | 7 | 4.8 | 0.9 | 21 | 31 | 2 | 12
4 | CCN1C[C@H](C)n2c(c(O)c3c(=O)n4nc(c32)N(C)S(=O)(=O)CCCCNC(=O)c2cc(F)ccc2C4)C1=O [Compound 22] | 0.5 | 6.0 | 1.7 | 14 | 12 | – | 0.6 | – | – | – | –
5 | CCN1C[C@H](C)n2c(c(O)c3c(=O)n4nc(c32)C(=O)N(C)CCCCCOc2cc(F)ccc2C4)C1=O [Compound 31] | 0.6 | 4.6 | 7.0 | 21 | 13 | 8.1 | 6 | – | – | – | –
6 | CCN1CCCCCOc2cc(F)c(Cl)cc2Cn2nc(c3c(c(O)c4n3[C@@H](C)CN(CC)C4=O)c2=O)C1=O [Compound 33] | 0.5 | 5.1 | 2.5 | 147 | 11 | 4.2 | 1.3 | – | – | – | –
7 | CCN1C[C@H](C)n2c(c(O)c3c(=O)n4nc(c32)NCCCCCNC(=O)c2cc(F)ccc2C4)C1=O [Compound 40] | 0.4 | 6.2 | 3.1 | 1100 | – | – | – | – | – | – | –
8 | CCN1C[C@H](C)n2c(c(O)c3c(=O)n4nc(c32)NCCCCCCNC(=O)c2cc(F)ccc2C4)C1=O [Compound 41] | 0.4 | 6.0 | 2.8 | 1110 | 7 | 5.4 | 0.7 | – | – | – | –
9 | CCN1C[C@H](C)n2c(c(O)c3c(=O)n4nc(c32)NCCCCCCN(C)C(=O)c2cc(F)ccc2C4)C1=O [Compound 42] | 0.5 | 3.3 | 2.6 | 3170 | – | – | – | – | – | – | –
10 | CCN1C[C@H](C)n2c(c(O)c3c(=O)n4nc(c32)N(C)CCCCCCNC(=O)c2cc(F)ccc2C4)C1=O [Compound 43] | 0.5 | 2.0 | 0.8 | 101 | – | – | – | – | – | – | –
11 | CCN1C[C@H](C)n2c(c(O)c3c(=O)n4nc(c32)N2CCN(CC2)C(=O)CCCOc2cc(F)ccc2C4)C1=O [Compound 44] | 0.7 | 3.9 | 1.3 | 6 | 16 | 5.2 | 1.8 | 48 | 70 | 20 | 43
12 | CCN1C[C@H](C)n2c(c(O)c3c(=O)n4nc(c32)N2CCN(CC2)C(=O)CCCCOc2cc(F)ccc2C4)C1=O [Compound 45] | 0.8 | 4.3 | 1.6 | 6 | 8 | 4.2 | 0.9 | – | – | – | –
13 | CCN1C[C@H](C)n2c(c(O)c3c(=O)n4nc(c32)N(C)CCCCCCOc2cc(F)ccc2C4)C1=O [Compound 46] | 0.3 | 40.8 | 3.6 | 1490 | – | – | – | – | – | – | –
14 | CCN1C[C@H](C)n2c(c(O)c3c(=O)n4nc(c32)N2CCN(CCCCOc3cc(F)ccc3C4)S2(=O)=O)C1=O [Compound 47] | 0.7 | 4.4 | 3.2 | 4 | – | – | – | – | – | – | –
15 | CCN1C[C@H](C)n2c(c(O)c3c(=O)n4nc(c32)N(C)S(=O)(=O)CC/C=C\COc2cc(F)ccc2C4)C1=O [Compound 49] | 0.5 | 5.3 | 1.6 | 8 | – | – | – | – | – | – | –
16 | CCN1C[C@H](C)n2c(c(O)c3c(=O)n4nc(c32)N(C)S(=O)(=O)CCC/C=C\COc2cc(F)ccc2C4)C1=O [Compound 50] | 0.3 | 2.8 | 1.2 | 11 | – | – | – | – | – | – | –
17 | CCN1C[C@H](C)n2c(c(O)c3c(=O)n4nc(c32)N(C)S(=O)(=O)CCC/C=C/COc2cc(F)ccc2C4)C1=O [Compound 51] | 0.4 | 9.6 | 3.4 | 13 | – | – | – | – | – | – | –
